Results as given in patent publication US6124328A, “Methods and compositions for stimulating neurite growth” (Vertex Pharmaceuticals Incorporated, priority 1997, dated 2000).

Key:
[1] = test system: PC12 rat pheochromocytoma cells; settings: Lyons et al., cited from earlier work
[2] = test system: dorsal root ganglia (sensory ganglia); settings: Lyons et al., cited from earlier work
ryanodine receptor (RyR) = settings: cited from earlier work
[3] = test system: inositol 1,4,5-triphosphate receptor (IP3 R); settings: cited from earlier work
FKBP12 = FKBP12 (Homo sapiens, UniProt P62942); assay: FKBP12 Binding Assay: inhibition of FKBP rotomase activity (cis-N-succinyl-Ala-Ala-Pro-Phe-p-nitroanilide / chymotrypsin), apparent Ki; type: biochemical; settings: Table 2, formula II', compound 0.1 nM-10 μM
Sequence of FKBP12 (P62942 whole entry): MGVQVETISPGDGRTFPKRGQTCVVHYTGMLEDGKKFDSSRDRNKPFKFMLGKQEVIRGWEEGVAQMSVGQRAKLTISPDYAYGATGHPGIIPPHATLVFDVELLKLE
Excerpt: Preferably, the assay measures inhibition of FKBP12 rotomase activity. Such an assay has also been described by M. W. Harding et al., supra and by J. J. Siekierka et al., supra. In this assay the isomerization of an artificial substrate--N-succinyl-Ala-Ala-Pro-Phe-p-nitroanilide--is followed spectrophotometrically. The assay includes the cis form of the substrate, FKBP12, the inhibitor and chymotrypsin. Chymotrypsin is able to cleave p-nitroanilide from the trans form of the substrate, but not the cis form. Release of p-nitroanilide is measured.
In this assay various quantities of FKBP12 binding compound (0.1 nM-10 μM) were added to cis-N-succinyl-Ala-Ala-Pro-Phe-p-nitroanilide in the presence of FKBP12 and chymotrypsin. FKBP12 converts the cis form of the substrate to the trans form. This allows chymotrypsin to cleave p-nitroanilide from the substrate. Release of p-nitroanilide was measured spectrophotometrically.

C=CC[C@@H]1/C=C(\C)C[C@H](C)C[C@H](OC)[C@H]2O[C@@](O)(C(=O)C(=O)N3CCCC[C@H]3C(=O)O[C@H](/C(C)=C/[C@@H]3CC[C@@H](O)[C@H](OC)C3)[C@H](C)[C@@H](O)CC1=O)[C@H](C)C[C@@H]2OC [FK-506]
neurite outgrowth (synergy with NGF) ([1]; with NGF, rat pheochromocytoma cell line): acts synergistically with nerve growth factor (NGF) in stimulating neurite outgrowth
neurotrophic effects in sensory ganglia [2]: demonstrated similar neurotrophic effects
dissociating FKBP12 from the receptor (ryanodine receptor (RyR)): capable of dissociating FKBP12 from the receptor
dissociating FKBP12 from the receptor [3]: capable of dissociating FKBP12 from the receptor

COc1cc(C(=O)C(=O)N2CCCC[C@H]2C(=O)OC(CCCc2ccccc2)c2cccc(C(=O)c3cccnc3)c2)cc(OC)c1OC (some centres unmarked) [compound 91]
Ki (FKBP12): 24 nM

COc1cc(C(=O)C(=O)N2CCCC[C@H]2C(=O)OC(CCCc2ccccc2)c2cccc(C(=O)c3cccnc3)c2)cc(OC)c1OC (some centres unmarked) [compound 92]
Ki (FKBP12): 9 nM

COc1ccc(C(=O)C(=O)N2CCCC[C@H]2C(=O)OC(CCCc2ccccc2)c2cccc(OCc3ccncc3)c2)cc1OC (some centres unmarked) [compound 93]
Ki (FKBP12): 7.5 nM

COc1cc(C(=O)C(=O)N2CCCC[C@H]2C(=O)OC(CCCc2ccccc2)c2cccc(C(=O)c3ccncc3)c2)cc(OC)c1OCc1ccccc1 (some centres unmarked) [compound 94]
Ki (FKBP12): 25 nM

C=CCOc1c(OC)cc(C(=O)C(=O)N2CCCC[C@H]2C(=O)OC(CCCc2ccccc2)c2cccc(C(=O)c3ccncc3)c2)cc1OC (some centres unmarked) [compound 95]
Ki (FKBP12): 3.6 nM

COc1ccc(C(=O)C(=O)N2CCCC[C@H]2C(=O)OC(CCCc2ccccc2)c2cccc(C(=O)c3ccncc3)c2)cc1OCc1ccccc1 (some centres unmarked) [compound 96]
Ki (FKBP12): 25 nM

C=CCOc1cc(C(=O)C(=O)N2CCCC[C@H]2C(=O)OC(CCCc2ccccc2)c2cccc(C(=O)c3ccncc3)c2)ccc1OC (some centres unmarked) [compound 97]
Ki (FKBP12): 17 nM

COc1ccc(C(=O)C(=O)N2CCCC[C@H]2C(=O)OC(CCCc2ccccc2)c2cccc(C(=O)c3ccncc3)c2)cc1C/C=C/c1ccccc1 (some centres unmarked) [compound 98]
Ki (FKBP12): 380 nM

COc1cc(C(=O)C(=O)N2CCCC[C@H]2C(=O)OC(CCCc2ccccc2)c2ccc(C(=O)c3ccncc3)cc2)cc(OC)c1OCc1ccccc1 (some centres unmarked) [compound 99]
Ki (FKBP12): 15000 nM

COc1ccc(C(=O)C(=O)N2CCCC[C@H]2C(=O)OC(CCCc2ccccc2)c2ccc(C(=O)c3ccncc3)cc2)cc1OCc1ccccc1 (some centres unmarked) [compound 100]
Ki (FKBP12): > 5000 nM

COc1ccc(C(=O)C(=O)N2CCCC[C@H]2C(=O)OC(CCCc2ccccc2)c2ccccc2)cc1OCc1ccccc1 (some centres unmarked) [compound 103]
Ki (FKBP12): 24000 nM

COc1cc(C(=O)C(=O)N2CCCC[C@H]2C(=O)OC(CCCc2ccccc2)c2ccccc2)cc(OC)c1OCc1ccccc1 (some centres unmarked) [compound 104]
Ki (FKBP12): 1700 nM

CC(C)(C)C(=O)C(=O)N1CCC[C@H]1C(=O)OC(CCCc1ccccc1)CCCc1cccnc1 (some centres unmarked) [compound 105]
Ki (FKBP12): 340 nM

COc1cc(C(=O)C(=O)N2CCCC[C@H]2C(=O)OC(CCCc2cccnc2)CCCc2cccnc2)cc(OC)c1OC [compound 106]
Ki (FKBP12): 3.7 nM

COc1cc(C(=O)C(=O)N2CCC[C@H]2C(=O)OC(COCc2ccccc2)COCc2ccccc2)cc(OC)c1OC [compound 107]
Ki (FKBP12): 75000 nM

COc1cc(C(=O)C(=O)N2CCC[C@H]2C(=O)OC(CCCc2cccnc2)CCCc2cccnc2)cc(OC)c1OC [compound 108]
Ki (FKBP12): 89 nM

CC(C)C(=O)C(=O)N1CCCC[C@H]1C(=O)OC(CCCc1cccnc1)CCCc1cccnc1 [compound 109]
Ki (FKBP12): 1500 nM

COc1cc(C(=O)C(=O)N2CCCC[C@H]2C(=O)OC(c2cc(OCc3ccncc3)c(OCc3ccncc3)c(OCc3ccncc3)c2)C(C)C)cc(OC)c1OC (some centres unmarked) [compound 115]
Ki (FKBP12): 0.39 nM

COc1cc(C(=O)C(=O)N2CCCC[C@H]2C(=O)OC(c2cc(OCc3ccncc3)c(OCc3ccncc3)c(OCc3ccncc3)c2)C(C)C)cc(OC)c1OC (some centres unmarked) [compound 116]
Ki (FKBP12): 13 nM

C=CCC(OC(=O)[C@@H]1CCCCN1C(=O)C(=O)c1cc(OC)c(OC)c(OC)c1)c1cc(OCc2ccncc2)c(OCc2ccncc2)c(OCc2ccncc2)c1 (some centres unmarked) [compound 118]
Ki (FKBP12): 12 nM

CO[C@H]1C[C@@H]2CC[C@@H](C)[C@@](O)(O2)C(=O)C(=O)N2CCCC[C@H]2C(=O)O[C@H]([C@H](C)C[C@@H]2CC[C@@H](O)[C@H](OC)C2)CC(=O)[C@H](C)/C=C(\C)[C@@H](O)[C@@H](OC)C(=O)[C@H](C)C[C@H](C)/C=C/C=C/C=C/1C [rapamycin]
effect on FK-506-induced neurite outgrowth ([1]; with FK-506): did not inhibit the effects of FK-506 on neurite outgrowth
neurotrophic effect in combination with FK-506 ([1]; with FK-506): additive effect with FK-506
effect on FK-506 neurotrophic effects in sensory ganglia ([2]; with FK-506): those effects were blocked by rapamycin
dissociating FKBP12 from the receptor (ryanodine receptor (RyR)): capable of dissociating FKBP12 from the receptor
dissociating FKBP12 from the receptor [3]: capable of dissociating FKBP12 from the receptor
